Legend:
HaCaT cells = test: Glucosamine uptake assay in HaCaT cells; format: cell-based, human; conditions: 0.1 μM; for Uptake rate (glucosamine): 48 h treatment; for Percentage (%) of control glucosamine uptake: relative to control
Protocol: In glucosamine uptake test, HaCaT cells were seeded into 24-well plate at a density of 3×10^4 cells/well and cultured for 24 h. The cells were then treated in the absence (solvent control) or presence of various concentrations of astragalosides for another 48 h. The treated cells were then washed twice with PBS and incubated in glucose and serum free medium (GSFM). After 2 h, the cells were replaced with fresh GSFM containing 0.2 μCi of [^14C]-Glucosamine (American Radiolabelled Chemicals Inc, ARC, St. Louis, Mo., USA). At the designated time interval, the cells were washed twice with GSFM containing cold glucosamine and then lysed in 200 μL 2% SDS. Cell lysates were centrifuged at 15000 g for 15 min. Intracellular uptaken glucosamine was determined by transferring 10 μL of the cell lysate to filter-bottemed UniFilter plates (Perkim-Elmer) and counted. Protein concentration of the samples was measured using the BCA protein assay kit as described above. Glucosamine accumulated in the cells was calculated and normalized to protein concentration and uptake rate was expressed as counts per minute per microgram of cell protein (cpm/min/μg).

collagen III = test: Collagen III expression and secretion in human HaCaT cells (western blot); format: cell-based; conditions: relative to 0 = 1.00
Protocol: The Spontaneously transformed human keratinocyte cell lines HaCaT cells were grown at 37° C. in a humidified incubator under 5% CO2 and 95% air in culture medium such as Dulbecco Modified Eagle Medium (DMEM) supplemented with 10% Fetal Bovine Serum (FBS), 100 IU/mL penicillin, 100 μg/mL of streptomycin, 2 mM sodium pyruvate and 1% Non-Essential Amino Acids (NEAA). The culture medium was replaced every other day. After confluence, the cells were subcultured following trypsinization. For subcultures cells were harvested after brief treatment with 0.1% trypsin/ethylenediaminetetraacetic acid (EDTA) solution and seeded at a dilution of 1:10. Cells between passages 12 and 45 were used for studies. The cells were seeded and incubated for 24 h before treated with the astragalosides for 24 h. Control cultures were maintained in medium supplemented with vehicle (dimethyl sulfoxide (DMSO) 0.1%). No growth and differentiation effects of DMSO were observed under these culture conditions.
The cells were treated with pure compounds such as astragaloside I (AS 1), astragaloside II (AS2), astragaloside III (AS3), astragaloside IV (AS4), astragaloside VI (AS6), isoastragaloside I (isoAS1), isoastragaloside II (isoAS2), and cycloastragenol 6-O-β-D-glucopyranose (AA) at concentrations of 0-10 μM. Alternatively, the cells were also treated with the crude extracts, such as butanol fraction and water insoluble fraction of Astragalus membranaceus at concentrations of 0, 1, 10, and 40 μg/mL. The cells were treated with the indicated compounds or the extracts for 24 h before harvested for analysis of collagen I and III expressed in the whole cell extract or secreted into the culture medium.
Western blot analysis was carried out on both of cultured medium and cell lysates. The cells were plated on 6-cm dishes at a density of 1×10^6 cells/dish for 24 h prior to treatment with indicated concentrations of astragalus triterpenoids as indicated for another 48 h. The conditioned culture mediums were then centrifuged, 2-fold concentrated and collected for assay of collagens and MMPs secreted into the culture medium. The cells were washed and lysed in 0.2 mL of lysis buffer (1% NP-40, 50 mM Tris-HCl, pH 7.4, 180 mM NaCl, 1 mM EDTA, 1 mM PMSF, 1 mM NaF, 10 mM Na3VO4) for 30 min at 4° C. After centrifuging at 17500 g for 15 min, the supernatants of cell lysate were also collected. Protein concentration of the samples were measured using the bicinchoninic acid (BCA) protein assay kit according to the manufacturer's protocol (Pierce, Rockford, Ill., USA). Equal amount of protein samples of concentrated conditioned medium (100 μg) or cell lysate supernatants (50 μg) were mixed with an appropriate volume of 4×SDS sampling buffer and separated by 8% SDS-PAGE gel. The protein bands separated in the SDS-PAGE gel were blotted onto a polyvinylidene fluoride (PVDF) membrane. The blotted PVDF membrane was washed twice and blocked in freshly prepared Tris-buffered saline (TBS) containing 0.1% Tween-20 and 7% skim milk (TBST) for 2 h at room temperature. The PVDF membrane was then incubated with either antibodies against collagen I and III or the housekeeping protein α-tubulin (Santa Cruz Biotechnology, Santa Cruz, Calif.) for 18 h at 4° C. Horseradish peroxidase-conjugated anti-goat antibody was used as secondary antibody. Signals were visualized by an enhanced chemiluminescence kit (Clonetech, Palo Alto, Calif., USA) followed by exposure to X-ray films.
The collagen III was also over-expressed in the human HaCaT cells treated with different doses (0.01, 0.1 and 1 μM) of the astragalosides, such as AS1, AS2 and AS3. Similarly, the collagen III was over-expressed in the human HaCaT cells treated with various dosages (1, 10 and 40 μg/mL) of the crude extract as shown in Table 1B. On the other hand, the amount of collagen III secreted into the medium was measured to determine the effect on cellular release of collagen III. […]

hyaluronic acid (HA) = test: HA measurement in culture medium of HaCaT cells (HA-ELISA); format: cell-based, human; conditions: relative to 0 = 1.00
Protocol: HA measurement was carried out as described (BBRC, 2004, 316: 348-355). Briefly, HaCaT or HDF cells were seeded and incubated in 24-well plates to confluency. Immediately before experiments, cells were washed twice with serum-free medium to completely remove HA accumulated during cell growth. The cells were then cultured with or without different compounds in 0.5 ml serum-free medium for 48 h. At the indicated time, aliquots of medium were removed, centrifuged at 15000 g for 5 min, and supernatants were analyzed for HA using an enzyme-linked immunosorbent assay (ELISA) kit (Echelon Bioscience, Salt Lake, Utah).
Results shown represent the fold of induction of the astragalosides on hyaluronic acid expression in HaCaT cells. The concentrations of astragalosides used were 0, 1, or 10 μM (unless indicated otherwise) for astragaloside pure compounds; were 0, 0.5, 1, 2.5, 5, 10, 40 μg/mL for the butanol fraction (unless indicated otherwise); and were 0, 1, 10, 40 μg/mL for the water insoluble fraction (unless indicated otherwise). The cells were treated with the indicated compounds for 24 h before harvested for analysis of secreted hyaluronic acid in culture medium using HA-ELISA kit.

Row | Molecule | Uptake rate (glucosamine) (HaCaT cells) | Percentage (%) of control glucosamine uptake (HaCaT cells) | Collagen III in medium (collagen III; 0.01 μM) | Collagen III in medium (collagen III; 0.1 μM) | Collagen III in medium (collagen III; 1 μM) | HA in medium (fold of induction) (hyaluronic acid (HA); 1 μM) | HA in medium (fold of induction) (hyaluronic acid (HA); 10 μM) | Collagen III in cell (collagen III; 0.01 μM) | Collagen III in cell (collagen III; 0.1 μM) | Collagen III in cell (collagen III; 1 μM)
1 | CC(=O)O[C@H]1[C@H](O[C@H]2CC[C@]34C[C@]35CC[C@]3(C)[C@@H]([C@@]6(C)CC[C@@H](C(C)(C)O)O6)[C@@H](O)C[C@@]3(C)[C@@H]5C[C@H](O[C@@H]3O[C@H](CO)[C@@H](O)[C@H](O)[C@H]3O)[C@H]4C2(C)C)OC[C@@H](OC(C)=O)[C@@H]1O [isoAS1, isoastragaloside I] | 0.9589 ± 0.0665 CPM/μg protein | 116.34% | 3.32 | 4.41 | 6.53 |  |  |  |  | 
2 | astragaloside I [AS1] | 1.0482 ± 0.0560 CPM/μg protein | 127.18% |  |  |  | 1.45 | 1.36 | 1.29 | 1.59 | 2.63
3 | CC(=O)O[C@@H]1[C@@H](O)[C@H](O[C@H]2CC[C@]34C[C@]35CC[C@]3(C)[C@@H]([C@@]6(C)CC[C@@H](C(C)(C)O)O6)[C@@H](O)C[C@@]3(C)[C@@H]5C[C@H](O[C@@H]3O[C@H](CO)[C@@H](O)[C@H](O)[C@H]3O)[C@H]4C2(C)C)OC[C@H]1O [isoAS2, isoastragaloside II] | 0.9226 ± 0.0668 CPM/μg protein | 111.94% |  |  |  |  |  |  |  | 
4 | CC(=O)O[C@H]1[C@H](O[C@H]2CC[C@]34C[C@]35CC[C@]3(C)[C@@H]([C@@]6(C)CC[C@@H](C(C)(C)O)O6)[C@@H](O)C[C@@]3(C)[C@@H]5C[C@H](O[C@@H]3O[C@H](CO)[C@@H](O)[C@H](O)[C@H]3O)[C@H]4C2(C)C)OC[C@@H](O)[C@@H]1O [AS2, astragaloside II] | 0.9561 ± 0.0918 CPM/μg protein | 116.00% |  |  |  | 1.98 | 1.31 | 1.36 | 1.44 | 1.49
5 | CC(C)(O)[C@@H]1CC[C@](C)([C@H]2[C@@H](O)C[C@@]3(C)[C@@H]4C[C@H](O[C@@H]5O[C@H](CO)[C@@H](O)[C@H](O)[C@H]5O)[C@H]5C(C)(C)[C@@H](O[C@@H]6OC[C@@H](O)[C@H](O)[C@H]6O)CC[C@@]56C[C@@]46CC[C@]23C)O1 [AS4, astragaloside IV] | 0.8931 ± 0.0918 CPM/μg protein | 108.36% | 0.79 | 1.13 | 1.16 | 2.27 | 1.31 |  |  | 
6 | CC(C)(O)[C@@H]1CC[C@](C)([C@H]2[C@@H](O)C[C@@]3(C)[C@@H]4C[C@H](O[C@@H]5O[C@H](CO)[C@@H](O)[C@H](O)[C@H]5O)[C@H]5C(C)(C)[C@@H](O[C@@H]6OC[C@@H](O)[C@H](O)[C@H]6O[C@@H]6O[C@H](CO)[C@@H](O)[C@H](O)[C@H]6O)CC[C@@]56C[C@@]46CC[C@]23C)O1 [AS6, astragaloside VI] | 0.8471 ± 0.0278 CPM/μg protein | 102.78% | 4.55 | 4.27 | 3.86 | 1.13 | 1.38 |  |  | 
7 | CC(C)(O)[C@@H]1CC[C@](C)([C@H]2[C@@H](O)C[C@@]3(C)[C@@H]4C[C@H](O)[C@H]5C(C)(C)[C@@H](O[C@@H]6OC[C@@H](O)[C@H](O)[C@H]6O[C@@H]6O[C@H](CO)[C@@H](O)[C@H](O)[C@H]6O)CC[C@@]56C[C@@]46CC[C@]23C)O1 [AS3, astragaloside III] | 1.0129 ± 0.0371 CPM/μg protein | 122.90% |  |  |  |  |  | 0.86 | 1.22 | 2.12
